From US8173387B2, “Method of examining chemical using gene-disrupted strain” (priority 2003, dated 2012)

Tests used:
Format in all cases: cell-based, Saccharomyces cerevisiae
[1] = test system: gene-disrupted strain DEL002 (YDR027C) transformed with a plasmid p-YBR072W; test: promoter assay (GFP reporter), Example 2; settings: GFP fluorescence 4 hours after loading, parent strain BY4743
Description: (§1) In a gene-disrupted strain, a growing rate becomes small so much, or medium components in which the strain can be grown are different in some cases, depending on a disrupted gene. Then, in the present experiment studying a host cell of a promoter assay method, in view of easy comparison with a control experiment, among gene-disrupted strains obtained as the result of Example 1, a few strains which have sensitivity to many chemicals and are grown by the same procedure as that of a parent strain were selected. Selected gene-disrupted strains are 8 strains of DEL000, DEL002, DEL011, DEL014, DEL016, DEL019, DEL022 and DEL025 in Table 7. Further, as a control, a parent strain, BY4743 was used.
(§2) A competent cell of each of a parent strain of a gene-disrupted strain and selected gene-disrupted strains was prepared. This competent cell was transformed using two kinds of prepared plasmids for promoter assay, p-YBR072W (in which GFP was connected understream of a promoter of YBR072W) and p-YPL171C (in which GFP was connected downstream of a promoter of YPL171C).
(§3) The resulting transformant was grown to the steady state by shaking-culturing on a SD medium (histidine, leucine) at 25° C. The transformant in the steady state was diluted 500-fold with the same medium, shaking-cultured at 25° C. for 15 hours and, after it was confirmed that an absorbance at 600 nm was 0.2 to 0.5 as a logarithmic growth phase, chemicals having different concentrations were loaded. After loading of chemicals, fluorescence of cells which had been cultured for 4 hours was measured using a flow cytometer (FITC filter, EPICS XL-MCL, Bechmancoulter), and this was adopted as an expression amount of GFP (green fluorescence protein) which is a marker gene. A fluorescence intensity of 10000 cells was measured with a flow cytometer by one measurement and an average of fluorescence intensities of all cells was obtained, and was adopted as a measured value. Similarly, a fluorescence intensity of a cell to which a chemical had not been loaded was obtained, and results are shown as a fluorescence intensity ratio.

[2] = test system: gene-disrupted strain DEL011 (YGL240W) transformed with a plasmid p-YBR072W; test: promoter assay (GFP reporter), Example 2; settings: GFP fluorescence 4 hours after loading, parent strain BY4743
Description: as §1, §2, §3

[3] = test system: gene-disrupted strain DEL016 (YCR028C) transformed with a plasmid p-YBR072W; test: promoter assay (GFP reporter), Example 2; settings: GFP fluorescence 4 hours after loading, parent strain BY4743
Description: as §1, §2, §3

[4] = test system: gene-disrupted strain DEL019 (YIL036W) transformed with a plasmid p-YBR072W; test: promoter assay (GFP reporter), Example 2; settings: strain printed DEL019025, p-YBR072W, GFP fluorescence 4 hours after loading, parent strain BY4743
Description: as §1, §2, §3

[5] = test system: gene-disrupted strain DEL025 (YLR311C) transformed with a plasmid p-YBR072W; test: promoter assay (GFP reporter), Example 2; settings: strain printed DEL, p-YBR072W, GFP fluorescence 4 hours after loading, parent strain BY4743
Description: as §1, §2, §3

[6] = test system: gene-disrupted strain DEL011 (YGL240W) transformed with a plasmid p-YPL171C; test: promoter assay (GFP reporter), Example 2; settings: GFP fluorescence 4 hours after loading, parent strain BY4743
Description: as §1, §2, §3

[7] = test system: gene-disrupted strain DEL016 (YCR028C) transformed with a plasmid p-YPL171C; test: promoter assay (GFP reporter), Example 2; settings: GFP fluorescence 4 hours after loading, parent strain BY4743
Description: as §1, §2, §3

[8] = test system: gene-disrupted strain DEL014 (YJR104C) transformed with a plasmid p-YBR072W; test: promoter assay (GFP reporter), Example 2; settings: GFP fluorescence 4 hours after loading, parent strain BY4743
Description: as §1, §2, §3

[9] = test system: heterozygous diploid DEL000/014 transformed with a plasmid p-YPL171C; test: promoter assay (GFP reporter), Example 3; settings: heterozygous diploid DEL000/014, p-YPL171C, W303 background
Source text: (§4) In order to prepare a gene-disrupted strain transformation cassette, genes having chemical sensitivity; YPR036W(DEL000), YDL151C(DEL001), YGL026C(DEL003), YHR039C-A(DEL006), YKL080W(DEL007), YLR447C(DEL008), YGR006W(DEL012), YGR105W(DRL013), YJR104C(DEL014), YGL206C(DEL018), YIL036W(DEL019), YKL119C(DEL020), YLR226W(DEL022) and YLR311C(DEL025) in Table 7 were selected, and each gene was replaced with a transformation marker such as kanamycin resistance. As primers for performing PCT amplification, a N-terminal side (ORF(upper)) and a C-terminal side (ORF(lower)) in each ORF were used. A length of a sequence (ORF(upper) and ORF(lower)) of a primer homologues with ORF was 46 or 50 bp.
(§5) A W303 a mating type (ATCC200903) and a W303α mating type (ATCC201238) in which the same gene was gene disruption-manipulated were mated by a mating procedure (Yeast Gene Experimental Manual: Maruzen Co., Ltd., p 83-92) to prepare homozygous diploids. Separately, mating of a W303a mating type, and a non-gene-disrupted W303α type was performed by the similar procedure to prepare heterozygous diploids.
(§6) By such the procedure, homozygous diploids of DEL000, DEL001, DEL003, DEL006, DEL007, DEL008, DEL012, DEL013, DEL014, DEL018, DEL019, DEL020, DEL022 and DEL025 in Table 7 were prepared. In addition, heterozygous diploids in which DEL006, DEL014 and DEL 022 were mated with a non-gene-disrupted strain (hereafter, referred to as DEL006 heterozygous diploid, DEL 014 heterozygous diploid, DEL022 heterozygous diploid) and, further, a heterozygous diploid in which DEL000 and DEL014 were mated (hereafter, referred to as DEL000/014 heterozygous diploid) were prepared.
(§7) Competent cells of W303 ATCC201239 (MATa/MATα leu2-3/leu2-3 leu2-112/leu2-112 trp1-1/trp1-1 ura3-1/ura3-1 his 3-11/his3-11 his3-15/his3-15 ade2-1/ade2-1 can1-100/can1-100) which is a parent strain of gene-disrupted strains, and each of prepared gene-disrupted strains were prepared. The competent cells were transformed using two kind of prepared plasmid for promoter assay, p-YBR072W (in which GFP is connected downstream of a promoter of YBR072W) and p-YPL171C (in which GFP is connected downstream of a promoter of YPL171C).
(§8) The resulting transformant was grown to the steady state by shaking-culturing on a SD medium (adenine, hystidine, triptophan, leucine) at 25° C. The transformant in the steady state was diluted 500-fold with the same medium, shaking-cultured at 25° C. for 15 hours and, after it was confirmed that an absorbance at 600 nm was 0.2 to 0.5 as a logarithmic growth phase, chemicals having different concentrations were loaded. After loading of chemicals, fluorescence of cells which had been cultured for 4 hours was measured using a flow cytometer (FITC filter, EPICS XL-MCL, Bechmancoulter), and this was adopted as an expression amount of GFP (green fluorescence protein) which is a marker gene. A fluorescence intensity of 10000 cells was measured with a flow cytometer by one measurement and an average of fluorescence intensities of all cells was obtained, and was adopted as a measured value. Similarly, a fluorescence intensity of a cell to which a chemical had not been loaded was obtained, and results are shown as difference in a fluorescence intensity.

[10] = test system: homozygous diploid of gene-disrupted strain DEL003 (YGL026C) transformed with a plasmid p-YPL171C; test: promoter assay (GFP reporter), Example 3; settings: W303 background
Source text: as §4, §5, §6, §7, §8

[11] = test system: homozygous diploid of gene-disrupted strain DEL006 (YHR039C-A) transformed with a plasmid p-YPL171C; test: promoter assay (GFP reporter), Example 3; settings: W303 background
Source text: as §4, §5, §6, §7, §8

[12] = test system: homozygous diploid of gene-disrupted strain DEL008 (YLR447C) transformed with a plasmid p-YPL171C; test: promoter assay (GFP reporter), Example 3; settings: W303 background
Source text: as §4, §5, §6, §7, §8

[13] = test system: homozygous diploid of gene-disrupted strain DEL014 (YJR104C) transformed with a plasmid p-YPL171C; test: promoter assay (GFP reporter), Example 3; settings: W303 background
Source text: as §4, §5, §6, §7, §8

[14] = test system: homozygous diploid of gene-disrupted strain DEL022 (YLR226W) transformed with a plasmid p-YPL171C; test: promoter assay (GFP reporter), Example 3; settings: W303 background
Source text: as §4, §5, §6, §7, §8

[15] = test system: heterozygous diploid of gene-disrupted strain DEL006 (YHR039C-A) transformed with a plasmid p-YPL171C; test: promoter assay (GFP reporter), Example 3; settings: W303 background
Source text: as §4, §5, §6, §7, §8

[16] = test system: homozygous diploid of gene-disrupted strain DEL001 (YDL151C) transformed with a plasmid p-YPL171C; test: promoter assay (GFP reporter), Example 3; settings: W303 background
Source text: as §4, §5, §6, §7, §8

[17] = test system: homozygous diploid of gene-disrupted strain DEL007 (YKL080W) transformed with a plasmid p-YPL171C; test: promoter assay (GFP reporter), Example 3; settings: W303 background
Source text: as §4, §5, §6, §7, §8

[18] = test system: homozygous diploid of gene-disrupted strain DEL020 (YKL119C) transformed with a plasmid p-YPL171C; test: promoter assay (GFP reporter), Example 3; settings: DEL0020 homozygous diploid, W303 background
Source text: as §4, §5, §6, §7, §8

[Cl][Cd][Cl] [cadmium chloride]
concentration at which the strain responded, as fraction of a concentration of a parent strain [1]: 1/3
concentration at which the strain responded, as fraction of a concentration of a parent strain [2]: 1/3
concentration at which the strain responded, as fraction of a concentration of a parent strain [3]: 1/3
concentration at which the strain responded, as fraction of a concentration of a parent strain [4]: 1/3
concentration at which the strain responded, as fraction of a concentration of a parent strain [5]: 1/3

[Cl][Hg][Cl] [mercuric chloride]
concentration at which the strain responded, as fraction of a concentration of a parent strain [6]: 1/10
concentration at which the strain responded, as fraction of a concentration of a parent strain [7]: 1/3

O=[As][O-].[Na+] [sodium metaarsenite]
concentration at which the strain responded, as fraction of a concentration of a parent strain [2]: 1/10
concentration at which the strain responded, as fraction of a concentration of a parent strain [6]: 1/3
concentration at which the strain responded, as fraction of a concentration of a parent strain [8]: 1/3000
concentration at which the strain responded, as fraction of a concentration of a parent strain [3]: 1/3
concentration at which sensitivity is shown, as fraction of a concentration of a gene-non-disrupted strain [9]: 1/30
concentration at which sensitivity is shown, as fraction of a concentration of a gene-non-disrupted strain [10]: 1/3
concentration at which sensitivity is shown, as fraction of a concentration of a gene-non-disrupted strain [11]: 1/30
concentration at which sensitivity is shown, as fraction of a concentration of a gene-non-disrupted strain [12]: 1/3
concentration at which sensitivity is shown, as fraction of a concentration of a gene-non-disrupted strain [13]: 1/30
concentration at which sensitivity is shown, as fraction of a concentration of a gene-non-disrupted strain [14]: 1/3

CN(C)C(=S)SSC(=S)N(C)C [thiuram]
concentration at which sensitivity is shown, as fraction of a concentration of a gene-non-disrupted strain [15]: 1/10
concentration at which sensitivity is shown, as fraction of a concentration of a gene-non-disrupted strain [16]: 1/3
concentration at which sensitivity is shown, as fraction of a concentration of a gene-non-disrupted strain [11]: 1/10
concentration at which sensitivity is shown, as fraction of a concentration of a gene-non-disrupted strain [17]: 1/1000
concentration at which sensitivity is shown, as fraction of a concentration of a gene-non-disrupted strain [18]: 1/3
concentration at which sensitivity is shown, as fraction of a concentration of a gene-non-disrupted strain [14]: 1/1000
